Drawing on patent US9796742B2, “Kinase inhibitors” (Respivert Limited, priority 2012, dated 2017), this text covers IC50 for 8 compounds.

Each structure is given as a SMILES string. pIC50: −log10 of the molar value. Read-outs that look alike come from different tables or passages of the source. Bounds are passed on as bounds.

As usually defined, the pIC50 is the negative decadic logarithm of the IC50, by convention in mol/L.

In one assay the target is c-Src (Homo sapiens (Human), UniProt P12931). In words: c-Src enzyme inhibition (FRET, Z-LYTE). The class given is biochemical. On the procedure:
(§1) The enzyme inhibitory activities of compounds disclosed herein are determined by FRET using synthetic peptides labelled with both donor and acceptor fluorophores (Z-LYTE, Invitrogen Ltd., Paisley, UK).
(§2) The inhibitory activities of compounds of the invention against c-Src and Syk enzymes (Invitrogen), are evaluated in a similar fashion to that described hereinabove. The relevant enzyme (3000 ng/mL or 2000 ng/mL respectively, 2.5 μL) is incubated with the test compound (either 4 μg/mL, 0.4 μg/mL, 0.04 μg/mL, or 0.004 μg/mL, 2.5 μL each) for 2 hr at RT. The FRET peptides (8 μM. 2.5 μL), and appropriate ATP solutions (2.5 μL, 800 μM for c-Src, and 60 μM ATP for Syk) are then added to the enzymes/compound mixtures and incubated for 1 hr. Development reagent (protease, 5 μL) is added for 1 hr prior to detection in a fluorescence microplate reader (Varioskan® Flash, ThermoFisher Scientific).
(§3) In all cases, the site-specific protease cleaves non-phosphorylated peptide only and eliminates the FRET signal. Phosphorylation levels of each reaction are calculated using the ratio of coumarin emission (donor) over fluorescein emission (acceptor), for which high ratios indicate high phosphorylation and low ratios indicate low phosphorylation levels. The percentage inhibition of each reaction is calculated relative to non-inhibited control and the 50% inhibitory concentration (IC50 value) is then calculated from the concentration-response curve.

A further assay has as its target Syk (Homo sapiens (Human), UniProt P43405). In words: Syk enzyme inhibition (FRET, Z-LYTE). The class given is biochemical. The method, then: as §1, §2, §3
The target in a further assay is p38 MAPKα (Homo sapiens (Human), UniProt Q16539). In words: p38 MAPKα enzyme inhibition (FRET, Z-LYTE; Method 2). The assay is classed as biochemical. The method, then: as §1
The inhibitory activities of test compounds against the p38 MAPKα isoform (MAPK14: Invitrogen), are evaluated indirectly by determining the level of activation/phosphorylation of the down-stream molecule, MAPKAP-K2. The p38 MAPKα protein (80 ng/mL, 2.5 μL) is mixed with the test compound (2.5 μL of either 4 μg/mL, 0.4 μg/mL, 0.04 μg/mL or 0.004 μg/mL) for 2 hr at RT. […] The mixture is incubated for 1 hr at RT. Development reagent (protease, 5 μL) is added for 1 hr prior to detection in a fluorescence microplate reader (Varioskan® Flash, ThermoFisher Scientific).
Method 2 This method follows the same steps as Method 1 above, but utilises a higher concentration of the p38 MAPKα protein (2.5 μL of 200 ng/mL protein instead of 2.5 μL of 80 ng/mL protein) for mixing with the test compound.
as §3

For the next assay, the system named is HT29 cells. The experiment in a line: IL-1β-induced IL-8 release in HT29 cells. The class given is cell-based. The conditions noted are these: Homo sapiens, HT-29, IL-1β-stimulated HT29 cells, read-out: IC50 Values for Inhibition of Cytokine Release, HT29 cells IL-8. On the procedure:
HT29 cells, a human colon adenocarcinorna cell line, are plated in a 96 well plate (24 hrs) and pre-treated with compounds at the desired concentration for 2 hours before addition of 5 ng/mL of IL-1β (Abcam) for 24 hours. Supernatants are harvested for IL-8 quantification by Sandwich ELISA (Duo-set, R&D System). The IC50 is determined from the dose response curve.

Assay [1] relates to PBMCs. The experiment in a line: LPS-induced TNFα/IL-8 release in PBMC cells. The conditions noted are these: Homo sapiens, LPS-stimulated PBMCs. The class given is cell-based. The method in brief:
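Human PBMCs from healthy donors, isolated by density gradient, were pretreated with compound for 2 h and then stimulated with 1 ng/mL LPS (E. coli 0111:B4) for 24 h at 37° C, 5% CO2. Supernatant IL-8 and TNFα were measured by sandwich ELISA, and IC50 was taken from the dose-response curve.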

The subject of the next assay is d-U937 cells. In words: LPS-induced TNFα/IL-8 release in d-U937 cells. The note with it: Homo sapiens, dU937, LPS-stimulated d-U937 cells. The assay is classed as cell-based. On the procedure:
U937 cells, a human monocytic cell line, are differentiated to macrophage-type cells by incubation with phorbol myristate acetate (PMA; 100 ng/mL) for 48 to 72 hr. Cells are pre-incubated with final concentrations of test compound for 2 hr and are then stimulated with 0.1 μg/mL of LPS (from E. Coli: O111:B4, Sigma) for 4 hr. The supernatant is collected for determination of TNFα and IL-8 concentrations by sandwich ELISA (Duo-set, R&D systems). The inhibition of TNFα production is calculated as a percentage of that achieved by 10 μg/mL of BIRB796 at each concentration of test compound by comparison against vehicle control. The relative 50% effective concentration (REC50) is determined from the resultant concentration-response curve. The inhibition of IL-8 production is calculated at each concentration of test compound by comparison with vehicle control. The 50% inhibitory concentration (IC50) is determined from the resultant concentration-response curve.

The next assay has as its target GSK3α (Homo sapiens (Human), UniProt P49840). In words: GSK 3α enzyme inhibition (FRET, Z-LYTE; Method 2). The assay is classed as biochemical. The method in brief:
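GSK3-α protein preincubated with compound for 105 min, then Z-LYTE FRET peptide and ATP added for 1 h before protease development for 1 h. Phosphorylation taken from coumarin/fluorescein emission ratio; percent inhibition against uninhibited control and IC50 calculated from concentration-response curves.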

Assay [2] concerns PBMCs. The experiment in a line: IL-2 and IFN gamma release in CD3/CD28 stimulated PBMC cells. The class given is cell-based. The note with it: Homo sapiens. The method, then:
PBMCs from healthy subjects are separated from whole blood using a density gradient (Lymphoprep, Axis-Shield Healthcare). Cells are added to a 96 well plate pre-coated with a mixture of CD3/[…] monoclonal antibodies (0.3 μg/mL eBioscience and 3 μg/mL BD Pharmingen respectively). Compound at the desired concentration is then added to the wells and the plate left for 3 days under normal tissue culture conditions. Supernatants are harvested and IL-2 and IFN gamma release determined by Sandwich ELISA (Duo-set, R&D System). The IC50 is determined from the dose response curve.

[3] abbreviates: IL-8, read-out: IC50 Values for Inhibition of Cytokine Release, PBMCs IL-8.
[4] abbreviates: IL-8, read-out: IC50 Values for Inhibition of Cytokine Release, dU937 cells IL-8.
Where [5] appears, read: TNFα (REC50 relative to BIRB796 per method), read-out: IC50 Values for Inhibition of Cytokine Release, dU937 cells TNFα.
Where [6] appears, read: IL-2, read-out: IC50 Values for Inhibition of Cytokine Release, PBMCs IL-2.
Where [7] appears, read: IFNγ, read-out: IC50 Values for Inhibition of Cytokine Release, PBMCs IFNγ.

GSK3α, sequence (P49840 whole entry): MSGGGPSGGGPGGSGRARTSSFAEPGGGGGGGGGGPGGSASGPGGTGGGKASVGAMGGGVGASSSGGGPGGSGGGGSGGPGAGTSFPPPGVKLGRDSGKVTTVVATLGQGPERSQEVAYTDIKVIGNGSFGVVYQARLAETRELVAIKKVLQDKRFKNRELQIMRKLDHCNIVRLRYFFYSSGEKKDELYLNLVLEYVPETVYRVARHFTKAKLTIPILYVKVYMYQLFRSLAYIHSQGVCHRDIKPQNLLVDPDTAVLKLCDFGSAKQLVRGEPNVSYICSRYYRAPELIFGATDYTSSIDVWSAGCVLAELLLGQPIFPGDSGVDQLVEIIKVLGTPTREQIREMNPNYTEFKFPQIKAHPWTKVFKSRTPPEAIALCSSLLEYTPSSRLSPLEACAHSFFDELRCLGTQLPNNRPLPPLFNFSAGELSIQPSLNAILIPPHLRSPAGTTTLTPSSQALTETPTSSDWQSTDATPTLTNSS
p38 MAPKα, sequence (Q16539 whole entry, canonical isoform): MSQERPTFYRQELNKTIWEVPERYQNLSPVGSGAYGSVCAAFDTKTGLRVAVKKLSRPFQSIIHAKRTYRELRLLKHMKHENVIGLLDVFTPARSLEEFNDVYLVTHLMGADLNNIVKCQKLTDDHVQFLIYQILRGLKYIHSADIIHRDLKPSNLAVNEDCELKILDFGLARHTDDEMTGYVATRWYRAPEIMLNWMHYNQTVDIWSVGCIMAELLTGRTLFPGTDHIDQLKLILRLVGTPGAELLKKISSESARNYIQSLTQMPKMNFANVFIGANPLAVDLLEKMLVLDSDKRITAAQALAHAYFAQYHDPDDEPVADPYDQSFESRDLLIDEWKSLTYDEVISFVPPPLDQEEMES
c-Src, sequence (P12931 whole entry, looked up): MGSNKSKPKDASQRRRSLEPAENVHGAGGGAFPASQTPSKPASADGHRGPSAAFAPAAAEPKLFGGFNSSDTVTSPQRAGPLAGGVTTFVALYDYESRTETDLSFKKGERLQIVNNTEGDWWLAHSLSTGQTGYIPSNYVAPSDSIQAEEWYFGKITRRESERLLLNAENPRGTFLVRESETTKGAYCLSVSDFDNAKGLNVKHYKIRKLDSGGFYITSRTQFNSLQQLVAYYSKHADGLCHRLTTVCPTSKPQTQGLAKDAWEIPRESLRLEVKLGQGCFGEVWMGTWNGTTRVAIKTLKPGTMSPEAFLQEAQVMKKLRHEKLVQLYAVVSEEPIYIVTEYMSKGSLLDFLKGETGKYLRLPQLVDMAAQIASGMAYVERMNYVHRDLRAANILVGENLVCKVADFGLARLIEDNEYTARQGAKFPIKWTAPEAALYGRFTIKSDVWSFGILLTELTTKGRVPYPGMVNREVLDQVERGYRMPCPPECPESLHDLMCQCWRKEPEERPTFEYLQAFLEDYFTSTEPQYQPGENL

For the compound `CN(c1ccccc1)c1nccc(Oc2ccc(NC(=O)Nc3cc(C(C)(C)C)nn3-c3ccc(P(C)(C)=O)cc3)c3ccccc23)n1` [Example 15, 1-(3-(tert-Butyl)-1-(4-(dimethylphosphoryl)phenyl)-1H-pyrazol-5-yl)-3-(4-((2-(methyl-(phenyl)amino)pyrimidin-4-yl)oxy)naphthalen-1-yl)urea], the negative logarithm of the IC50 (pIC50) on c-Src is less than 6.00; against Syk, less than 6.00; on p38 MAPKα it was 7.25; in the assay with HT29 cells, 6.20; in the assay on PBMCs [1] (setting [3]), 6.17; with PBMCs [1] (TNFα, read-out: IC50 Values for Inhibition of Cytokine Release, PBMCs TNFα), 6.70. The pIC50 in the assay on d-U937 cells (setting [4]) is 6.40; in the assay on d-U937 cells (setting [5]) it was 6.74; against GSK3α it was less than 5.00.
Consider `CC(C)(C)c1cc(NC(=O)Nc2ccc(Oc3ccnc(Nc4ccccc4)n3)c3ccccc23)n(-c2cccc(CP(C)(C)=O)c2)n1` [Example 23, 1-(3-(tert-Butyl)-1-(3-((dimethylphosphoryl)methyl)phenyl)-1H-pyrazol-5-yl)-3-(4-((2-(phenylamino)pyrimidin-4-yl)oxy)naphthalen-1-yl)urea], for which the pIC50 at c-Src is 7.40; against Syk, 7.01; with PBMCs [2] (setting [6]), 7.37; on p38 MAPKα, 6.58; with HT29 cells it was 7.87; in the assay on PBMCs [1] (setting [3]), 8.12. In addition, the pIC50 in the assay on d-U937 cells (setting [4]) is 8.66; in the assay on d-U937 cells (setting [5]) it was 8.85; on GSK3α it was 5.78.
With `COc1cc(Nc2nccc(Oc3ccc(NC(=O)Nc4cc(C(C)C)nn4-c4cccc(CP(C)(C)=O)c4)c4ccccc34)n2)cc(C(=O)NCCN2CCOCC2)c1` [Example 38, 3-((4-((4-(3-(1-(3-((Dimethylphosphoryl)methyl)phenyl)-3-isopropyl-1H-pyrazol-5-yl)-ureido)naphthalen-1-yl)oxy)pyrimidin-2-yl)amino)-5-methoxy-N-(2-morpholinoethyl)-benzamide], the pIC50 at c-Src was 8.70; against Syk, 8.52; with PBMCs [2] (setting [6]), 8.04; on p38 MAPKα, 8.00; in the assay on HT29 cells it was 7.57; in the assay with PBMCs [1] (setting [3]), 8.42. Further, the figures for the pIC50 in the assay with d-U937 cells (setting [4]), with d-U937 cells (setting [5]) and against GSK3α were 8.54, 8.80 and 5.90, respectively.
Take `COc1cc(Nc2nccc(Oc3ccc(NC(=O)Nc4cc(C(C)C)nn4-c4cccc(CP(C)(C)=O)c4)c4ccccc34)n2)cc(OCCN2CCOCC2)c1` [Example 39, 1-(1-(3-((Dimethylphosphoryl)methyl)phenyl)-3-isopropyl-1H-pyrazol-5-yl)-3-(4-((2-((3-methoxy-5-(2-morpholinoethoxy)phenyl)amino)pyrimidin-4-yl)oxy)naphthalen-1-yl)urea]: the pIC50 was 8.52 on c-Src; 9.00 at Syk; 7.89 against p38 MAPKα; 8.34 with HT29 cells; 8.92 in the assay on PBMCs [1] (setting [3]); 9.30 with d-U937 cells (setting [5]). The pIC50 against GSK3α is 5.65.
Regarding `COCCOCCOCCOc1cc(Nc2nccc(Oc3ccc(NC(=O)Nc4cc(C(C)C)nn4-c4cccc(CP(C)(C)=O)c4)c4ccccc34)n2)cc(OC)c1` [Example 45, 1-(1-(3-((Dimethylphosphoryl)methyl)phenyl)-3-isopropyl-1H-pyrazol-5-yl)-3-(4-((2-((3-methoxy-5-(2-(2-(2-methoxyethoxy)ethoxy)ethoxy)phenyl)amino)pyrimidin-4-yl)oxy)naphthalen-1-yl)urea], the pIC50 in the assay on PBMCs [2] (setting [6]) is 7.71; against p38 MAPKα it was 7.68; in the assay with HT29 cells, 8.19; in the assay on PBMCs [1] (setting [3]), 8.48; in the assay with d-U937 cells (setting [5]), 8.41; against GSK3α, 5.95.
Take `CC(C)c1cc(NC(=O)Nc2ccc(Oc3ccnc(Nc4cc(OCCN5CCOCC5)cc(C(F)(F)F)c4)n3)c3ccccc23)n(-c2cccc(CP(C)(C)=O)c2)n1` [Example 49, 1-(1-(3-((Dimethylphosphoryl)methyl)phenyl)-3-isopropyl-1H-pyrazol-5-yl)-3-(4-((2-((3-(2-morpholinoethoxy)-5-(trifluoromethyl)phenyl)amino)pyrimidin-4-yl)oxy)naphthalen-1-yl)urea]: the pIC50 on c-Src is 7.02; against Syk, 6.66; with PBMCs [2] (setting [7]), 8.29; in the assay on PBMCs [2] (setting [6]) it was 7.34; against p38 MAPKα it was 6.69; in the assay with HT29 cells, 8.42. Besides, the negative logarithm of the IC50 (pIC50) in the assay on PBMCs [1] (setting [3]) is 8.85; on GSK3α, less than 5.00.
As for `CC(C)(C)c1cc(NC(=O)Nc2ccc(Oc3ccnc(Nc4cc(OC(F)(F)F)cc(C(=O)NCCN5CCOCC5)c4)n3)c3ccccc23)n(-c2cccc(CP(C)(C)=O)c2)n1` [Example 59, 3-((4-((4-(3-(3-(tert-Butyl)-1-(3-((dimethylphosphoryl)methyl)phenyl)-1H-pyrazol-5-yl)-ureido)naphthalen-1-yl)oxy)pyrimidin-2-yl)amino)-N-(2-morpholinoethyl)-5-(trifluoromethoxy)benzamide], the pIC50 is 8.15 on c-Src; 7.74 on Syk; 8.60 with PBMCs [2] (setting [7]); 7.12 in the assay on PBMCs [2] (setting [6]); 7.09 at p38 MAPKα; 8.72 in the assay with HT29 cells. Moreover, the pIC50 in the assay on PBMCs [1] (setting [3]) is 9.10; in the assay with d-U937 cells (setting [4]), 9.05; against GSK3α, 5.91.
As to `CC(C)(C)c1cc(NC(=O)Nc2ccc(Oc3ccnc(Nc4cc(OCCN5CCOCC5)cc(C(F)(F)F)c4)n3)c3ccccc23)n(-c2cccc(CP(C)(C)=O)c2)n1` [Example 61, 1-(3-(tert-Butyl)-1-(3-((dimethylphosphoryl)methyl)phenyl)-1H-pyrazol-5-yl)-3-(4-((2-((3-(2-morpholinoethoxy)-5-(trifluoromethyl)phenyl)amino)pyrimidin-4-yl)oxy)naphthalen-1-yl)urea], the negative-log IC50 (pIC50) against c-Src was 7.85; against Syk it was 7.62; in the assay on PBMCs [2] (setting [7]), 8.48; in the assay on PBMCs [2] (setting [6]) it was 7.29; at p38 MAPKα it was 6.52; in the assay on HT29 cells it was 8.59. In addition, the negative-log IC50 (pIC50) is 8.64 with PBMCs [1] (setting [3]) and 5.38 on GSK3α.
